Laboratory results as given in patent US20070154962A1, “Bcl-2 promoted cell death” (priority 2005, published 2007).

Legend:
Format in all cases: cell-based
PC12 cells [1] = assay: Flow cytometry of sub-G1 nuclei from PC12 cells transiently transfected with Bcl-2-GFP and exposed to H2O2; settings: treated cells compared with untreated controls; FIG. 5
Description: FIG. 5: Flow cytometry measuring apoptotic cells from PC12 cells transiently transfected with Bcl-2-GFP with and without H2O2 treatment.
An alternative explanation would be that Bcl-2 relocates to the nucleus in response to apoptosis. […] However, there was no increase in the percent of sub-G1 nuclei carrying Bcl-2-GFP in cells treated with H2O2 as compared to untreated cells. In fact, there was a paradoxical decrease, which is expected if one appreciates that the number of sub-G1 nuclei increased after H2O2 treatment without a concomitant increase of nuclear Bcl-2-GFP. Therefore, nuclear association of Bcl-2 was […] apoptosis.

[2] = system: Human leukemia cells (HL-60); assay: Cell death as LDH release in HL-60 cells transiently transfected with BH4 peptide-expressing vector; settings: HL-60, 48 after transfection, vs. Flag or BH4Gly; FIG. 24
Procedure: The extent of cell death was assessed 48 after transfection as release of LDH in the cell culture medium.
The extent of cell death was assessed 48 after transfection as release of LDH in the cell culture medium. Statistical difference was vs. Flag or BH4Gly (Two-tailed Student “t” test; N=4-7 independent measurements per group).

[3] = system: PC12 cells stably expressing vector or Bcl-2; assay: Cell survival (renilla luciferase) of stably transfected PC12 cells transiently transfected with BH4 peptide vector; settings: FIG. 19
Procedure: FIG. 19: Cell survival was measured in PC12 cells stably expressing vector or Bcl-2. These two cell lines were transiently co-transfected with luciferase and either vector, BH4 domain, or BH4Gly.
(§1) The overall rationale of the experiment was to determine if domain interference disrupted Bcl-2/FKBP38 binding, changed Bcl-2's cellular localization (i.e., result in Bcl-2 misplacement at the nucleus) and ultimately promoted Bcl-2-triggered apoptosis. […] The rationale for using a peptide larger that the BH4 domain itself was to provide structure stability to the alpha-helix of the BH4 domain (AA 11-25) through sufficient flanking regions. Cells were further co-transfected with renilla luciferase so as to determine the extent of their survival. […] It is important to note that PC12 cells expressing Bcl-2 cells diddo not depend on Bcl-2 for their survival and therefore the effect of the BH4 peptide was not due to abolishment of Bcl-2 protection. Rather, it reflected an active induction of apoptosis by Bcl-2, triggered by the BH4 peptide. The possibility that PC12 cells expressing Bcl-2 may have undergone selection during the establishment of stable transfection that could have rendered them non-specifically sensitive to the BH4 peptide was excluded.

PC12 cells [4] = assay: Cell survival of naive PC12 cells transiently co-transfected with Bcl-2 or vector and BH4 or BH4Gly; settings: transient (24 hr) transfection of the BH4 vector alone, without Bcl-2, FIG. 20
Procedure: FIG. 20: Cell survival was measured in PC12 cells transiently co-transfected with Bcl-2 or vector, and either vector, BH4 or BH4Gly.
as §1

## OO [H2O2]
PC12 cells [1]
  sub-G1 (apoptotic) nuclei: substantial increase

## BH4 peptide: vector-expressed peptide identical to the N-terminal 30 amino acids of Bcl-2, including the 11-25 BH4 domain (MAHAGRTGYDNREIVMKYIHYKLSQRGYEW; UniProt P10415 1-30, looked up, fragment)
[2]
  cell death (release of LDH in the cell culture medium): effective in inducing cell death
[3]; PC12 cells not expressing Bcl-2 (empty vector pmKitNeo)
  induction of apoptosis / survival: unaffected
[3]; PC12 cells stably expressing Bcl-2, compared with BH4-transfected cells stably expressing empty pmKitNeo
  survival of cells (renilla luciferase): significantly lower
PC12 cells [4]
  cell survival: did not affect cell survival
